What is called half-life is the time needed for the level to fall by half in the phase considered. A lower half-life goes with rapid decline.

Counter-ions that a name gives are not always drawn.

From US10894043B2, “Pharmaceutical composition” (Kyowa Kirin Co., Ltd., priority 2016, dated 2021) come the findings set out here.

The nature of one data set: in vivo. The conditions noted are these: Brown Norway, iv. As to the method:
This intravenous dosing solution is administered to a Brown Norway rat. After a given interval from the administration, for example, 24, 72 and 168 hours after the administration, blood is collected. Then, the rat is euthanized while the eyeballs are excised. A posterior eye tissue such as the choroid and/or the sclera, the retina, or the optic nerve is harvested therefrom. A given amount of an aqueous solution containing an organic solvent (e.g., a 50 vol % methanol solution) is added to the harvested posterior eye tissue, which is then homogenized, for example, to prepare an assay sample. The drug concentration in this assay sample can be measured using a liquid chromatograph-tandem mass spectrometer (LC/MS/MS) to measure the compound concentration in the posterior eye tissue in the case of systemic administration. The elimination half-life of the compound in the posterior eye tissue can be further calculated from time-dependent change in compound concentration in the posterior eye tissue.
Each compound was dissolved in DMA. […] Each intravenous dosing solution was administered (0.5 mL/kg) to the tail vein of each Brown Norway rat. Twenty-four, 72 and 168 hours after the administration, blood was collected. Then, the animal was euthanized, and the eyeballs were excised. The eyeballs were washed, and a choroid/sclera sample was then harvested.
A given amount of a 50 vol % methanol solution was added to the harvested choroid/sclera sample, which was then homogenized. Acetonitrile was further added thereto, and the mixture was stirred. The sample was centrifuged, and the supernatant was harvested. A 0.1 vol % formic acid solution was added thereto to prepare an assay sample. The drug concentration in the assay sample was measured using a liquid chromatograph-tandem mass spectrometer (LC/MS/MS).

Data set [1] in a line: Test Example 10: pharmacokinetics of compounds IV to VIII, single ocular instillation to rat, concentration in choroid/sclera. The settings on record: rats, 1.5 hours. In kind it is in vivo, Brown-Norway rat. As to the method:
1.5 hours after the ocular instillation, blood was collected. Then, the animal was euthanized, and both the eyeballs were excised.
The sample was centrifuged, and the supernatant was harvested.

Data set [2] is described as follows: Test Example 1: pharmacokinetics, single ocular instillation to rat, concentration in choroid/sclera. The format is in vivo, Brown Norway rat. The conditions noted are these: nanoparticle composition, mean particle size 1000 nm or smaller. As to the method: The nanoparticle compositions of the present invention obtained in Examples 19 and 24 and the microparticle compositions obtained in Comparative Examples 3 and 4 were evaluated for their pharmacokinetics when administered at a single dose by ocular instillation (4 to 12 μL/eye, n=2 for each group) to rats. Each nanoparticle composition was administered at a single dose by ocular instillation to the right eyes of male Brown Norway rats. Four to 7 hours after the ocular instillation, each rat was euthanized, and the right eyeball was excised. The eyeball was washed, and an eyeball tissue sample (choroid/sclera) was then harvested.
(§1) The sample was centrifuged, and the supernatant was harvested. A 10 mmol/L ammonium acetate solution was added thereto to prepare an assay sample.

Data set [3] in a line: Test Example 6: pharmacokinetics, single ocular instillation to cynomolgus monkey, concentration in choroid. In kind it is in vivo. The settings on record: cynomolgus monkeys. As to the method: The nanoparticle composition of the present invention prepared according to Example 1 and the microparticle composition prepared according to Comparative Example 1 were evaluated for their pharmacokinetics when administered at a single dose by ocular instillation to male cynomolgus monkeys. The nanoparticle composition of the present invention prepared according to Example 1 was administered by ocular instillation (50 μL/eye) to the right eye of each animal, while the microparticle composition prepared according to Comparative Example 1 was administered by ocular instillation (50 μL/eye) to the left eye thereof. Four hours or 48 hours (n=2 for each point in time) after the ocular instillation, blood was collected. […] The eyeballs were washed, and a choroid tissue was then harvested.
as §1

A short description of data set [4]: Test Example 3: pharmacokinetics, single ocular instillation to rat, concentration in choroid/sclera. In kind it is in vivo, Brown Norway rat. The conditions noted are these: rats, 4 hours. As to the method: The nanoparticle compositions of the present invention prepared in accordance with Examples 1 and 26 and the nanoparticle compositions of the present invention obtained in Examples 50, 52, 53, 54, 57 and 96 were evaluated for their pharmacokinetics when administered at a single dose by ocular instillation to rats. Each nanoparticle composition was administered at a single dose by ocular instillation to the right eyes of male Brown Norway rats (5 μL/eye, n=2 for each group). Four hours after the ocular instillation, each rat was euthanized, and the right eyeball was excised. The eyeball was washed, and a choroid/sclera sample was then harvested.
as §1

Data set [5] can be described thus: Test Example 5: pharmacokinetics, single ocular instillation to rabbit, compound III in choroid/retina. The format is in vivo, Kbl:Dutch rabbit. The conditions noted are these: rabbits, all particle sizes evaluated. As to the method: The nanoparticle compositions obtained in Reference Examples 11 to 13 and the microparticle composition prepared according to Comparative Example 1 were evaluated for their pharmacokinetics when administered at a single dose by ocular instillation (20 μL/eye) to Kbl:Dutch rabbits. Each of the nanoparticle compositions obtained in Reference Examples 11 to 13 and the microparticle composition prepared according to Comparative Example 1 was administered at a single dose by ocular instillation to the left eyes of the animals (n=3 for each condition). 1.5 hours after the ocular instillation, each animal was euthanized, and the eyeballs were excised. The eyeballs were washed, and a choroid/retina sample was then harvested.
as §1

[6] abbreviates: rat, 0.2 mg/kg, Half-life in choroid and sclera.

In turn, `COc1cc2nccc(Oc3ccc(NC(=O)NC4CC4)c(Cl)c3)c2cc1C(N)=O` [Compound V, 4-[3-chloro-4-(cyclopropylcarbamoylamino)phenoxy]-7-methoxyquinoline-6-carboxamide] showed a half-life in the data set “in vivo” (setting [6]) of 42.3 h.

For `COc1cc2c(Oc3ccc4[nH]c(C)cc4c3F)ccnc2cc1OCC1(N)CC1` [Compound IV, 1-[[4-[(4-fluoro-2-methyl-1H-indol-5-yl)oxy]-6-methoxyquinolin-7-yl]oxymethyl]cyclopropan-1-amine], in the data set “in vivo” (setting [6]), the half-life was 141 h. For the same compound, the “transfer to the choroid and/or the sclera, nanoparticle vs microparticle composition” value (from here on “transfer … vs microparticle composition”) in data set [1] is given as “moderately improved transfer”. `COc1cc2c(Nc3ccc(Cl)c(Cl)c3F)ncnc2cc1OC[C@@H]1C[C@@H]2CN(C)C[C@@H]2C1` [tesevatinib]: the half-life in “in vivo” (setting [6]) was 305 h.

For `CS(=O)(=O)CCNCc1ccc(-c2ccc3ncnc(Nc4ccc(OCc5cccc(F)c5)c(Cl)c4)c3c2)o1` [lapatinib], the half-life in the data set “in vivo” (setting [6]) was 246 h. In the case of `COc1cc2nccc(Oc3ccc(NC(=O)C4(C(=O)Nc5ccc(F)cc5)CC4)cc3)c2cc1OC` [cabozantinib], the half-life in the data set “in vivo” (in vivo, 0.2 mg/kg, Half-life in choroid and sclera, VEGF receptor inhibitors, intravenous single dose 0.2 mg/kg) was 65.8 h. Turning to `C=CC(=O)Nc1ccc2ncnc(Nc3ccc(OCc4cccc(F)c4)c(Cl)c3)c2c1` [Compound VIII, N-[4-[[3-chloro-4-[(3-fluorobenzyl)oxy]phenyl]amino]quinazolin-6-yl]acrylamide], the “Half-life in choroid and sclera” value in the data set “in vivo” (rat, 0.2 mg/kg) was 40.1 h. For the same compound, the half-life in the data set “in vivo” (setting [6]) was 52.9 h. Besides, the “transfer … vs microparticle composition” value in data set [1] is “drastically improved transfer”.

With `COc1cc2nccc(Oc3ccc(NC(=O)Nc4cc(C)on4)c(Cl)c3)c2cc1OC` [Compound II, N-[2-chloro-4-(6,7-dimethoxyquinolin-4-yloxy)phenyl]-N′-(5-methylisoxazol-3-yl)urea hydrochloride hydrate], the “transfer to the choroid and/or the sclera” value in data set [2] was “drastically enhanced transfer to the choroid and/or the sclera”; in data set [4], “high transfer to the choroid and/or the sclera”. Moreover, in data set [3], the “concentration in the choroid, compound II vs regorafenib” value is listed as “much higher than that of regorafenib”. Take `COc1cc2ncnc(Nc3ccc(F)c(Cl)c3)c2cc1NC(=O)/C=C/CN1CCCCC1` [Compound VII, (E)-N-[4-(3-chloro-4-fluoroanilino)-7-methoxyquinazolin-6-yl]-4-piperidin-1-ylbut-2-enamide]: the “Half-life in choroid and sclera” value in “in vivo” (rat, 0.2 mg/kg) is 486 h. The compound also showed a half-life in “in vivo” (setting [6]) of 918 h. Also, in data set [1], the “transfer … vs microparticle composition” value is given as “drastically improved transfer”.

Compound `C[C@@H]1COC(Nc2ccc3ncnc(Nc4ccc(OCc5nccs5)c(Cl)c4)c3c2)=N1` [varlitinib] showed a half-life in the data set “in vivo” (setting [6]) of 46.1 h.

In the case of `COc1cc2ncnc(Nc3cccc(Cl)c3)c2cc1OC` [AG-1478, N-(3-chlorophenyl)-N-(6,7-dimethoxyquinazolin-4-yl)amine], the half-life in “in vivo” (rat, 0.05 mg/kg, Half-life in choroid and sclera) is 42.8 h. For the compound `CNC(=O)c1ccccc1Sc1ccc2c(/C=C/c3ccccn3)n[nH]c2c1` [axitinib], the half-life in the data set “in vivo” (setting [6]) was 57.4 h.

Compound `COC(=O)c1ccc2c(c1)NC(=O)/C2=C(\Nc1ccc(N(C)C(=O)CN2CCN(C)CC2)cc1)c1ccccc1` [Compound VI, methyl (3Z)-3-[({4-[N-methyl-2-(4-methylpiperazin-1-yl)acetamido]phenyl}amino)(phenyl)methylidene]-2-oxo-2.3-dihydro-1H-indole-6-carboxylate] had a half-life in “in vivo” (setting [6]) of 194 h. In addition, in data set [1], the “transfer … vs microparticle composition” value is “did not differ in transfer to the choroid and/or the sclera”. Take `CNC(=O)c1cc(Oc2ccc(NC(=O)Nc3ccc(Cl)c(C(F)(F)F)c3)c(F)c2)ccn1` [Compound III, 4-{4-[3-(4-chloro-3-trifluoromethylphenyl)-ureido]-3-fluorophenoxy}pyridine-2-carboxylic acid methylamide]: in data set [5], the “transfer to the choroid” value is given as “very low”.

In “in vivo” (setting [6]), `CNC(=O)c1c(C)oc2cc(Oc3ncnc4cc(OC)c(OC)cc34)ccc12` [fruquintinib] showed a half-life of 32.5 h. For the compound `C#Cc1cccc(Nc2ncnc3cc4c(cc23)OCCOCCOCCO4)c1` [icotinib], in the data set “in vivo” (setting [6]), the half-life is 64.8 h. Consider `COCCNCc1ccc(-c2cc3nccc(Oc4ccc(NC(=S)NC(=O)Cc5ccc(F)cc5)cc4F)c3s2)nc1` [glesatinib], for which the half-life in “in vivo” (setting [6]) was 132 h. Consider `COc1cc(N2CCC(N3CCN(C)CC3)CC2)ccc1Nc1ncc(Cl)c(Nc2ccccc2P(C)(C)=O)n1` [brigatinib], for which, in “in vivo” (rat, 0.1 mg/kg), the half-life was 137 h.

`C=CC(=O)Nc1cccc(Oc2nc(Nc3ccc(N4CCN(C)CC4)c(F)c3)nc3[nH]ccc23)c1` [avitinib] gave a half-life in “in vivo” (in vivo, 0.2 mg/kg, Half-life in choroid and sclera, EGFR inhibitors, intravenous single dose 0.2 mg/kg) of 85.5 h. As to `C=CC(=O)N1CCC(Oc2cc3c(Nc4ccc(Cl)c(Cl)c4F)ncnc3cc2OC)CC1` [poziotinib], in “in vivo” (setting [6]), the half-life is 31.9 h. For `Cc1cc(C(=O)Nc2nc3cccc(Cl)c3n2[C@@H]2CCCCN(C(=O)/C=C/CN(C)C)C2)ccn1` [nazartinib], the half-life in the data set “in vivo” (setting [6]) was 65.4 h. Still for that read-out and setting: to `COc1cc2ncnc(Nc3cccc(Cl)c3F)c2cc1OC(=O)N1CCN(C)C[C@H]1C` [AZD-3759, 4-[(3-chloro-2-fluorophenyl)amino]-7-methoxyquinazolin-6-yl (2R)-2,4-dimethylpiperazine-1-carboxylate] belongs 120 h.
